The values below are quoted from earlier work in patent US7141428B2 (priority 2000, dated 2006).

Series [1] deals with growth cone collapse. The note with it: collapse induced by activation of Rho or ROK.
The target of series [2] is Rho kinase (Rho-associated protein kinase, p160ROCK) (Homo sapiens, UniProt Q13464).
Chain of Rho kinase (Rho-associated protein kinase, p160ROCK) (Q13464 whole entry, looked up): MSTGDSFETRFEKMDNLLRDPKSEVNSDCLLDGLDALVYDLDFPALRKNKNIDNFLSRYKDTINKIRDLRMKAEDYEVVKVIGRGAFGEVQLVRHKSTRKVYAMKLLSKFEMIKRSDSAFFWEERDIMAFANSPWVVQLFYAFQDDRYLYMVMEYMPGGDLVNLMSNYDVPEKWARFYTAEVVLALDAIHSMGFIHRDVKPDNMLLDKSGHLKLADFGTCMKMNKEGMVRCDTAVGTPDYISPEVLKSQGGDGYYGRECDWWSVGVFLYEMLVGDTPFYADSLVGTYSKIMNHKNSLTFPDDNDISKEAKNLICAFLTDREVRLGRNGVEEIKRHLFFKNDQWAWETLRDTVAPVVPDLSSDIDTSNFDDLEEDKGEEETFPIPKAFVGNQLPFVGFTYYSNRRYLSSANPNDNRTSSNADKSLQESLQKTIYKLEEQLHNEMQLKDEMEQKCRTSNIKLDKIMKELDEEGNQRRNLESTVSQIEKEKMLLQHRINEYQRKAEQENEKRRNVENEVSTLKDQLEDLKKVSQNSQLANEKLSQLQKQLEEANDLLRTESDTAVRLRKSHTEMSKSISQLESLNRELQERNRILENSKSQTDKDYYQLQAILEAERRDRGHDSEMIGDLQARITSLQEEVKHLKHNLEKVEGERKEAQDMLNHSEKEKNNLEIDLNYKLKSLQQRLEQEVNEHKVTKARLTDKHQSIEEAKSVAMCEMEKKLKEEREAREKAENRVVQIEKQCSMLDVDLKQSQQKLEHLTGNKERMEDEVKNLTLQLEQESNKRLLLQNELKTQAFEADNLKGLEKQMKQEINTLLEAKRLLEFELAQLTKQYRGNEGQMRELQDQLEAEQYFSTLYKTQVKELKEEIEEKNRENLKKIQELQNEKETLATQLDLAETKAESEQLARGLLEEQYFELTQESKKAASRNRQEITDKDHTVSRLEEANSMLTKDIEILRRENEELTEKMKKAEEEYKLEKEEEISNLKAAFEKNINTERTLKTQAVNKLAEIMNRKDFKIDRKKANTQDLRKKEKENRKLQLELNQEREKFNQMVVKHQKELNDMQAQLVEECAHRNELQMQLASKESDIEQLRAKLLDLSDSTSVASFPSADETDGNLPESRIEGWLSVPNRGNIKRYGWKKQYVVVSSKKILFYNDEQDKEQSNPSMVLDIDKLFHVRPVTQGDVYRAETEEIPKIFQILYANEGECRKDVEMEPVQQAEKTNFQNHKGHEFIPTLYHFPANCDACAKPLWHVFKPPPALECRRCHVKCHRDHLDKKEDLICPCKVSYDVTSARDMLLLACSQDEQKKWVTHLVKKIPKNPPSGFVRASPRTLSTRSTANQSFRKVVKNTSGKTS

`C[C@@H](N)[C@H]1CC[C@H](C(=O)Nc2ccncc2)CC1` [Y-27632, (R)-(+)-trans-N-(4-pyridyl)-4-(1-aminoethyl)-cyclohexanecarboamide]: in series [1], the “prevention of growth cone collapse” value is “can be prevented”. Also, in series [2], the “concentration at which Rho kinase is inhibited” value was “sub-micromolar”.
